Columns and labels:
[1] = molecular target: T1, BACE1 (Homo sapiens, UniProt P56817); experiment: Cellular Aβ-lowering assay (BACE1 cell act. Aβ40); format: cell-based; details: HEK293 cells stably expressing human APP695; Aβ40 in supernatant
T1 construct: from tissue; host or cells: human brain tissue slices
Protocol: a) Human HEK293 cells which are stably transfected with a vector expressing a cDNA of the human APP wt gene (APP695) were used to assess the potency of the compounds in a cellular assay. The cells were seeded in 96-well microtiter plates in cell culture medium (Iscove, plus 10% (v/v) fetal bovine serum, glutamine, penicillin/streptomycin) to about 80% confluence and the compounds were added at a 10× concentration in 1/10 volume of medium without FCS containing 8% DMSO (final concentration of DMSO was kept at 0.8% v/v). After 18-20 hrs incubation at 37° C. and 5% CO2 in a humidified incubator the culture supernatant was harvested for the determination of Aβ40 concentrations. […] After stopping the reaction with one volume 1 N H2SO4 the reaction was measured in an ELISA reader at 450 nm wavelength. The concentrations of Aβ in the culture supernatants were calculated from a standard curve obtained with known amounts of pure Aβ peptide. […]
In a Perkin-Elmer White Optiplate-384 (Cat#6007290), 2 μl culture supernatants were combined with 2 μl of a 10× AlphaLISA Anti-hAβAcceptor beads+Biotinylated Antibody Anti-Aβ 1-40 Mix (50 μg/mL/5 nM). […] Light Emission at 615 nm was then recorded using EnVision-Alpha Reader. Levels of Aβ40 in the culture supernatants were calculated as percentage of maximum signal (cells treated with 1% DMSO without inhibitor). […]

[2] = system: BACE1; details: baboon, i.v. bolus, PET 0 to 120 minutes
Protocol: The PET experiments were carried out in male baboons (papio anubis). Animals were fasted for 12 hours prior to the PET study. Baboons were initially sedated intramuscularly with Ketamine hydrochloride with restraint dosages of 5-7 mg/kg to achieve a superficial level of anesthesia and then maintained on continuous Propofol intravenous infusion @ 0.3-0.4 mg/kg/h ([…] ® Injectable Emulsion). Circulatory volume was maintained by infusion of isotonic saline. A femoral arterial catheter was inserted for blood sampling. Physiological vital signs including heart rate, ECG, blood pressure and oxygen saturation were continuously monitored throughout the study. The animal was positioned in an ECAT HRRT® brain PET scanner (High Resolution Research Tomograph, CPS Innovations, Inc., Knoxville, Tenn.). The head of the animal was fitted with a thermoplastic mask that was attached to a head holder for reproducible fixation. A 6 min transmission scan with a 1 mCi Cs-137 point source was initially done for attenuation correction. […] The radioactivity of a VOI at time T was calculated as the weighted mean and expressed in mCi/ml. […]
SUV (%)=radioactivity (nCi/ml)/106/(dose (mCi)/body weight (kg)×103)×100, where numbers were used to make the unit for radioactivity equivalent between voxel radioactivity and radioactivity dose (106) and between body weight and voxel volume (103).

[3] = molecular target: T2, BACE1 (Rattus norvegicus, UniProt P56819); experiment: Ex vivo autoradiography in rats after i.v. tracer injection
T2 construct: from tissue; host or cells: rat brain (sagittal sections in vitro; brain of living rats for the ex vivo study)
Protocol: The in vivo characteristics of [^3H]-5-but-2-ynyloxy-pyrazine-2-carboxylic acid [3-((R)-2-amino-5,5-difluoro-4-methyl-5,6-dihydro-4H-[1,3]oxazin-4-yl)-4-fluoro-phenyl]-amide for imaging BACE1 were analyzed by an ex vivo autoradiographical approach using young male Sprague-Dawley rats. Animals were intravenously injected with 1 mCi/kg [^3H]-5-but-2-ynyloxy-pyrazine-2-carboxylic acid [3-((R)-2-amino-5,5-difluoro-4-methyl-5,6-dihydro-4H-[1,3]oxazin-4-yl)-4-fluoro-phenyl]-amide corresponding to 37.7 nmol/kg and sacrificed at various time points post injection. To test the specificity of tracer binding in vivo, rats were pre-administered with 10 mg/kg of a reference BACE1 inhibitor ((S)-3-(3,6-dihydro-2H-pyran-4-yl)-7-(2-fluoropyridin-3-yl)-5′H-spiro[chromeno[2,3-c]pyridine-5,5′-oxazol]-2′-amine, CAS Nr 1215869-02-5; example 294 in WO2010030954) (p.o.) 3 h prior to tracer injection. Animals were sacrificed at various time points post injection (5, 15, 30, 60, 120 min p.i.), their brains were rapidly removed and frozen in dry ice powder. Ten μm-thick sagittal sections were cut in a Cryostat microtome and thaw-mounted on adhesion glass slides. Slide-mounted brain sections were dried under a flow of cold air for 3 h and exposed together with [^3H]-microscale to a Fuji Imaging plate for 5 days. The imaging plate was then scanned in a high resolution Fuji BAS reader. The total amount of radiotracer bound to the brain areas of interest (TB) was measured using the MCID image analysis program and expressed as fmol of bound radiotracer/mg of protein. The amount of [^3H]-5-but-2-ynyloxy-pyrazine-2-carboxylic acid [3-((R)-2-amino-5,5-difluoro-4-methyl-5,6-dihydro-4H-[1,3]oxazin-4-yl)-4-fluoro-phenyl]-amide specifically bound to BACE1 (SB) was calculated according to the formula SB=TB−NSB.

[4] = molecular target: T2, BACE1; experiment: In vitro autoradiography in rat brain sections; format: binding
Text: The distribution of [^3H]-5-but-2-ynyloxy-pyrazine-2-carboxylic acid [3-((R)-2-amino-5,5-difluoro-4-methyl-5,6-dihydro-4H-[1,3]oxazin-4-yl)-4-fluoro-phenyl]-amide binding sites as well as the binding specificity for BACE1 was investigated by in vitro autoradiography using male Sprague-Dawley rats. Animals were sacrificed, their brains were rapidly removed and frozen in dry ice powder. Ten μm-thick sagittal sections were cut in a Cryostat microtome and thaw-mounted on adhesion glass slides. Brain sections were first incubated for 10 min in Ringer buffer (NaCl 120 mM, KCl 5 mM, CaCl2 2 mM, MgCl2 1 mM, Tris-HCl 50 mM pH 7.4) at RT and then for 60 min in Ringer buffer containing either 1 nM or 10 nM [^3H]-5-but-2-ynyloxy-pyrazine-2-carboxylic acid [3-((R)-2-amino-5,5-difluoro-4-methyl-5,6-dihydro-4H-[1,3]oxazin-4-yl)-4-fluoro-phenyl]-amide. For the evaluation of non-specific-binding (NSB) of the radiotracer an additional series of sections was incubated with Ringer buffer containing the radiotracer and a reference BACE1 inhibitor ((S)-3-(3,6-dihydro-2H-pyran-4-yl)-7-(2-fluoropyridin-3-yl)-5′H-spiro[chromeno[2,3-c]pyridine-5,5′-oxazol]-2′-amine, CAS Nr 1215869-02-5; example 294 in WO2010030954) at 10 μM. At the end of the incubation, sections were rinsed 3×5 min in ice-cold Ringer buffer and then rapidly dipped once in distilled water at 4° C. Slide-mounted brain sections were dried under a flow of cold air for 3 h and exposed together with [^3H]-microscale to a Fuji Imaging plate for 5 days. The imaging plate was then scanned in a high resolution Fuji BAS reader. The total amount of radiotracer bound to the brain areas of interest (TB) was measured using the MCID image analysis program and expressed as fmol of bound radiotracer/mg of protein. The amount of [^3H]-5-but-2-ynyloxy-pyrazine-2-carboxylic acid [3-((R)-2-amino-5,5-difluoro-4-methyl-5,6-dihydro-4H-[1,3]oxazin-4-yl)-4-fluoro-phenyl]-amide specifically bound to BACE1 (SB) was calculated according to the formula SB=TB−NSB. […]

T2 sequence (P56819 46-501): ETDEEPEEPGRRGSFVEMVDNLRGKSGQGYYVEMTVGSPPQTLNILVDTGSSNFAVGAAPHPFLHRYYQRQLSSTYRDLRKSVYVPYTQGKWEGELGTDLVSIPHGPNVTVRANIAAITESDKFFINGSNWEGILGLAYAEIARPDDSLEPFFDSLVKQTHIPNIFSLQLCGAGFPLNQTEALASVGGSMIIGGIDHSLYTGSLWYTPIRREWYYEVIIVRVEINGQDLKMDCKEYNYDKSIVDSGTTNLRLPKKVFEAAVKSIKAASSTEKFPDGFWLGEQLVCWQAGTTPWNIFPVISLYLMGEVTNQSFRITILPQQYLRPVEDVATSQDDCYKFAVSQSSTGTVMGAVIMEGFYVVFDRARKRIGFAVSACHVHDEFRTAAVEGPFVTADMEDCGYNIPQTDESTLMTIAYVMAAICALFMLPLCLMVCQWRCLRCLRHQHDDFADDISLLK
T1 sequence (P56817 46-501): as the sequence (P56819 46-501) above, with S82G, I162V, I165L, T180S, A182V, V340I, A393L, H443Q counted along it

## CC#CCOc1cnc(C(=O)Nc2ccc(F)c([C@@]3(C)N=C(N)OCC3(F)F)c2)cn1 [Example 1, 5-But-2-ynyloxy-pyrazine-2-carboxylic acid [3-((R)-2-amino-5,5-difluoro-4-methyl-5,6-dihydro-4H-[1,3]oxazin-4-yl)-4-fluoro-phenyl]-amide]
[1]
  IC50: 1.1 nM

## C[C@]1(c2cc(NC(=O)c3cnc(OCC#C[11CH3])cn3)ccc2F)N=C(N)OCC1(F)F [Example 3, [^11C]-5-But-2-ynyloxy-pyrazine-2-carboxylic acid [3-((R)-2-amino-5,5-difluoro-4-methyl-5,6-dihydro-4H-[1,3]oxazin-4-yl)-4-fluoro-phenyl]-amide]
[2]
  brain uptake of radiotracer: rapidly taken up in multiple brain areas

## [^3H]-5-But-2-ynyloxy-pyrazine-2-carboxylic acid [3-((R)-2-amino-5,5-difluoro-4-methyl-5,6-dihydro-4H-[1,3]oxazin-4-yl)-4-fluoro-phenyl]-amide [Example 2]
[3]; 10 mg/kg reference BACE1 inhibitor p.o. 3 h prior to tracer injection
  in vivo binding after pre-treatment with BACE1 ligand A (specificity): clearly reduced
[3]; 1 mCi/kg i.v., ex vivo autoradiography
  in vivo distribution pattern of binding (regions of highest accumulation): highest accumulation in the dentate gyms and the CA3 region of the hippocampus, the cerebellum, pallidum and substantia nigra
[3]; 5, 15, 30, 60, 120 min post injection
  wash-out kinetics of tracer binding: favorable wash-out kinetics
[4]; 1 nM example 2 co-incubated with 10 μM specific BACE1 inhibitor A, rat brain sections
  reduction of tracer binding: more than 80%
[4]; male Sprague-Dawley rat sagittal brain sections
  brain regions with highest densities of binding sites: dentate gyms and the CA3 region of the hippocampus, the cerebellum, pallidum and substantia nigra
[4]; male Sprague-Dawley rat sagittal brain sections, 1 nM or 10 nM tracer
  distribution of binding sites in the rat brain: widespread distribution
